Data: ChEMBL document CHEMBL1201862, “PubChem BioAssay data set” (2004)
The source made the active and inactive calls.

Legend:
[1] = target: T1, Corticotropin-releasing factor receptor 2/Corticotropin-releasing factor-binding protein (Homo sapiens, UniProt P24387+Q13324); experiment: Dose Response confirmation of uHTS hits for small molecule antagonists of the CRF-binding protein and CRF-R2 receptor complex.; format: functional; conditions: read-out: IC50_Mean
T1 sequence (Q13324 whole entry): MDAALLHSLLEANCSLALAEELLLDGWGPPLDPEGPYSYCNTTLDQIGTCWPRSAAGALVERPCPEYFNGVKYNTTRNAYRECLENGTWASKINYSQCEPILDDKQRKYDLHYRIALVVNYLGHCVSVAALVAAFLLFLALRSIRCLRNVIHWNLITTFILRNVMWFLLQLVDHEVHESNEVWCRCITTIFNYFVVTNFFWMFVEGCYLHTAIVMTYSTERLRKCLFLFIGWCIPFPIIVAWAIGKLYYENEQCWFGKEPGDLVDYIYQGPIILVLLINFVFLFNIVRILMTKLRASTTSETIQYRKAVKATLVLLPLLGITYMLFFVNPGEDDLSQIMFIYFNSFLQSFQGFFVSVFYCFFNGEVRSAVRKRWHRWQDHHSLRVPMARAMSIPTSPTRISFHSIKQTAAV
T1 sequence (P24387 whole entry): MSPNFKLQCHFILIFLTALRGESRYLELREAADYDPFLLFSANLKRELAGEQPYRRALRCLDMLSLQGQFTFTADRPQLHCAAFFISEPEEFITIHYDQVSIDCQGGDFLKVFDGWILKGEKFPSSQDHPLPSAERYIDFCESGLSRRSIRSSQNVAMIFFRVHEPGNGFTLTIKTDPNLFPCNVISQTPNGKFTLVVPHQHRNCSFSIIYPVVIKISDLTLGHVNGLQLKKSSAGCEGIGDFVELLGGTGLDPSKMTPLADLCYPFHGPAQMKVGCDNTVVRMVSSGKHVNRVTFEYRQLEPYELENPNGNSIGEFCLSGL

[2] = target: T1, Corticotropin-releasing factor receptor 2/Corticotropin-releasing factor-binding protein; experiment: activators of CRF receptor 2 with binding protein – uHTS hits, confirmation (AID 602473); format: functional; conditions: read-out: EC50_Mean
[3] = system: Streptococcus sp. 'group A'; experiment: Streptococcus pyogenes SK(-)GAS viability under kanamycin – luminescence, BacTiterGlo, confirmation, counter-screen for streptokinase expression inhibitor project, dose response (AID 1900); format: functional, organism-based
[4] = target: T2, Streptokinase A (Streptococcus pyogenes serotype M1, UniProt P10520); experiment: viability-normalized secreted streptokinase activity reduction – plasminogen activation absorbance, OD405, dose response (AID 1914); format: functional, Streptococcus pyogenes M1 GAS;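 also: secreted streptokinase activity via plasminogen activation per viability signal from cell pellet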
T2 sequence (P10520 whole entry): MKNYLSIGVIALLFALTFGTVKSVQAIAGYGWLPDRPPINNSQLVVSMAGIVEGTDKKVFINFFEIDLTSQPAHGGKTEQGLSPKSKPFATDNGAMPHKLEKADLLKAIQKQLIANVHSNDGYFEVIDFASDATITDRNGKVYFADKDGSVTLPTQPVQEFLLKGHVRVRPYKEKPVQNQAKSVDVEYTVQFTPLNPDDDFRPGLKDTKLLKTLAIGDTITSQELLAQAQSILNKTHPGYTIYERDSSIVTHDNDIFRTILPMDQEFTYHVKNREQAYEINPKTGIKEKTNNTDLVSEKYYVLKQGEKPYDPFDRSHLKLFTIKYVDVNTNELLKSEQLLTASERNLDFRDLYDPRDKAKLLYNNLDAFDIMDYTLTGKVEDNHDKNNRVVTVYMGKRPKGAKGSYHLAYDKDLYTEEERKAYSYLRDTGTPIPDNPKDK

[5] = target: T3, Calpain-2 catalytic subunit (Sus scrofa, UniProt P43367); experiment: m-calpain protease blockers, concentration series – biochemical, fluorogenic peptide substrate, dose response (AID 1420); format: functional
T3 sequence (P43367 whole entry): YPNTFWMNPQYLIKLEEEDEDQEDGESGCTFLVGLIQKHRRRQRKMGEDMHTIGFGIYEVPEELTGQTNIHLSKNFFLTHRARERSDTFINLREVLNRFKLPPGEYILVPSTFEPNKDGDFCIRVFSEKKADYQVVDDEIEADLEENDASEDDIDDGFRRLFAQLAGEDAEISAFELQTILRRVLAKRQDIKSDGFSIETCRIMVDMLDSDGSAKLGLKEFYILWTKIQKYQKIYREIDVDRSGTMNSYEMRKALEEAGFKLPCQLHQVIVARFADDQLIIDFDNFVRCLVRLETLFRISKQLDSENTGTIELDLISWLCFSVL

[6] = system: Streptococcus; experiment: GAS UMAA2166 growth inhibition – luminescence, BacTiterGlo, counter-screen for streptokinase expression inhibitor project, dose response (AID 1915); format: functional, organism-based;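 also: potency for reduction of bacterial viability or growth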
[7] = luciferase reporter signal suppression in cells – H4 neuroglioma cells, luminescence, dose response (AID 1990); format: functional, cell-based
[8] = Luminescence Cell-Based Dose Response HTS to Identify Inhibitors of 5'UTR Stem-Loop Driven Prion Protein mRNA Translation in H4 Neuroglioblastoma Cells. [Related pubchem assays: 1827 (Project Summary), 1813 (Primary HTS)]; format: functional
[9] = alpha-synuclein stem-loop luciferase translation blockers – H4 neuroglioma cells, luminescence, confirmation (AID 1988); format: functional, cell-based
[10] = system: INS1; experiment: INS-1E survival protection against cytokine death – cell-based, luminescence, retest, dose response (AID 449756); format: functional; conditions: Rattus norvegicus;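 also: cell death triggered by IL-1 beta plus TNF-alpha plus IFN-gamma mixture; protective hits raise ATP signal compared with cytokine alone wells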
[11] = target: Cytochrome P450 3A4 (Homo sapiens, UniProt P08684);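 also: CYP3A4 tested as one member of a cytochrome P450 panel screen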
Cytochrome P450 3A4, sequence (P08684 whole entry): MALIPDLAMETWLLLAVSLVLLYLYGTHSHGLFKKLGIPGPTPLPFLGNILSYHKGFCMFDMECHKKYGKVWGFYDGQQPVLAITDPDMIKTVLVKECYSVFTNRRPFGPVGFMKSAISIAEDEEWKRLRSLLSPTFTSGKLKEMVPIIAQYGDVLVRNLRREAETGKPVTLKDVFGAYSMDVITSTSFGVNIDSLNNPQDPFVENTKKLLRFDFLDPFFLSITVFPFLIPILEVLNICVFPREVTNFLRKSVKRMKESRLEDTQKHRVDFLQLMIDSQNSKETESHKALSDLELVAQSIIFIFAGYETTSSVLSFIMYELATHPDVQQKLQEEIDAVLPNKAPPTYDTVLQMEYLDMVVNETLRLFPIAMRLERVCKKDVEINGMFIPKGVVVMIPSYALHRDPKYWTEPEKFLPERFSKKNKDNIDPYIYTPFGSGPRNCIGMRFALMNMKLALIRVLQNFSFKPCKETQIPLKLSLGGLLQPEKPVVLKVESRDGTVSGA

[12] = target: Cytochrome P450 2C9 (Homo sapiens, UniProt P11712)
Cytochrome P450 2C9, sequence (P11712 whole entry): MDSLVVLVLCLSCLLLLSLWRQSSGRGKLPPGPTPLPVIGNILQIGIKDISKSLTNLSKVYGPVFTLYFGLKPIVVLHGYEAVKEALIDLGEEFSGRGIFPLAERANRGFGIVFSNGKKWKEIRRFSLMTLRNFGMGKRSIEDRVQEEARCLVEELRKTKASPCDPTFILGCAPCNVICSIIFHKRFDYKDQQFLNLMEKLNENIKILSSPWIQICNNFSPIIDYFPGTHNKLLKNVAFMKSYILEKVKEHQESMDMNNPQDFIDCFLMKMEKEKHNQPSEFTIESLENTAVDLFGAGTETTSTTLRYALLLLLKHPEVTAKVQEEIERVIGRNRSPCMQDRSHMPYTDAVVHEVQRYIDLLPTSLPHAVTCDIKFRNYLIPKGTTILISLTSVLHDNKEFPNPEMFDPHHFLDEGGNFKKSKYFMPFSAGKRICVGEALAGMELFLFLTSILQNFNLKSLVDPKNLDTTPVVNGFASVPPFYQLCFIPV

[13] = target: Cytochrome P450 2D6 (Homo sapiens, UniProt P10635);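 also: CYP2D6 member of a cytochrome P450 panel assay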
Cytochrome P450 2D6, sequence (P10635 whole entry): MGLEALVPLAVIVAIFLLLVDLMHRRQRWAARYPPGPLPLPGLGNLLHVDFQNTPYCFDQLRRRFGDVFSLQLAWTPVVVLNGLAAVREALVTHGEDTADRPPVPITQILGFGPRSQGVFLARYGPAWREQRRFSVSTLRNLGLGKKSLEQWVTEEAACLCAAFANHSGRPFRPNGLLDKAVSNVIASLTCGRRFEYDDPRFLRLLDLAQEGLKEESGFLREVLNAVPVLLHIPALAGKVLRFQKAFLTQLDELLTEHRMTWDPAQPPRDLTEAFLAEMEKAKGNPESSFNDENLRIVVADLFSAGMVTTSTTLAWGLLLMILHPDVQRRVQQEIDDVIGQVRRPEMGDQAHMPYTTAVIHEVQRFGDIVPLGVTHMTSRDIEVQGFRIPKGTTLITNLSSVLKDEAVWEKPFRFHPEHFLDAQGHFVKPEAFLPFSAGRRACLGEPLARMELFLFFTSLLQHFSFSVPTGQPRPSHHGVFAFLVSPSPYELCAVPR

[14] = target: Cytochrome P450 2C19 (Homo sapiens, UniProt P33261); experiment: Cytochrome panel assay with activity outcomes. Panel member name: p450-cyp2c19 Compounds with AC50 equal or less than 10 uM are considered active; format: functional; conditions: read-out: AC50
Cytochrome P450 2C19, sequence (P33261 whole entry): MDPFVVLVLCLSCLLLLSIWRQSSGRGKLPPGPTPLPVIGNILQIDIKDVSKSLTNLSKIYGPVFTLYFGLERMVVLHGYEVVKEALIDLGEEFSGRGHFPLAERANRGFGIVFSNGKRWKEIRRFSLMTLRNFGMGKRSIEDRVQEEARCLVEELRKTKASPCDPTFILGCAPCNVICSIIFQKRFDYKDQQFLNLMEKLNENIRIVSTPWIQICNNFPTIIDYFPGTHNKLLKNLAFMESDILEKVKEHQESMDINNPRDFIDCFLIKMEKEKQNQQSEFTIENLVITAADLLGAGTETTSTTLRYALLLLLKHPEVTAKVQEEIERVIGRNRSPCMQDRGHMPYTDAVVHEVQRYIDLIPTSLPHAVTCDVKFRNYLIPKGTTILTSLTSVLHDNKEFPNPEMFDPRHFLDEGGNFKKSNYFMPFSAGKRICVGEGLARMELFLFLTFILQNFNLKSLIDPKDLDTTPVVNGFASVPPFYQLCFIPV

[15] = viability of uninfected HEp-2 cells – cell-based, HTS, cytotoxicity control for RSV inhibitor project, dose response (AID 2410); format: functional; conditions: human respiratory syncytial virus
[16] = target: T4, Cytochrome P450 1A2 (Homo sapiens, UniProt P05177);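 also: PubChem cytochrome P450 panel assay, CYP1A2 panel member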
T4 sequence (P05177 whole entry): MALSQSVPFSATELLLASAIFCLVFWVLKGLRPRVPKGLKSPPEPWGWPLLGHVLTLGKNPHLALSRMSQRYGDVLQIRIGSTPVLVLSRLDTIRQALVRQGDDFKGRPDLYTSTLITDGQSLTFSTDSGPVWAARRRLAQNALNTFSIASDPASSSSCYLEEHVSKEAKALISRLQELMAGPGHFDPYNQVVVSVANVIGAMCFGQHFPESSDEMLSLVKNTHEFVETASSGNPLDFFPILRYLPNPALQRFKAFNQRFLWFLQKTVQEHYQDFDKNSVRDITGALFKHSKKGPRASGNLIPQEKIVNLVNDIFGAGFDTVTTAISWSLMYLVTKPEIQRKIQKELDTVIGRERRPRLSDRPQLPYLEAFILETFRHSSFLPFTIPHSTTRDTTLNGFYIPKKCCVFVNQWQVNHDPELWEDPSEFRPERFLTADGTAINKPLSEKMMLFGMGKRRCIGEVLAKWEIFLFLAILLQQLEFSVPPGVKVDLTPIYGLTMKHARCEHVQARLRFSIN

[17] = target: Luciferin 4-monooxygenase (Photinus pyralis, UniProt P08659); experiment: inhibition of purified Photinus pyralis luciferase – biochemical, luminescence, dose response (AID 1891)
Luciferin 4-monooxygenase, sequence (P08659 whole entry): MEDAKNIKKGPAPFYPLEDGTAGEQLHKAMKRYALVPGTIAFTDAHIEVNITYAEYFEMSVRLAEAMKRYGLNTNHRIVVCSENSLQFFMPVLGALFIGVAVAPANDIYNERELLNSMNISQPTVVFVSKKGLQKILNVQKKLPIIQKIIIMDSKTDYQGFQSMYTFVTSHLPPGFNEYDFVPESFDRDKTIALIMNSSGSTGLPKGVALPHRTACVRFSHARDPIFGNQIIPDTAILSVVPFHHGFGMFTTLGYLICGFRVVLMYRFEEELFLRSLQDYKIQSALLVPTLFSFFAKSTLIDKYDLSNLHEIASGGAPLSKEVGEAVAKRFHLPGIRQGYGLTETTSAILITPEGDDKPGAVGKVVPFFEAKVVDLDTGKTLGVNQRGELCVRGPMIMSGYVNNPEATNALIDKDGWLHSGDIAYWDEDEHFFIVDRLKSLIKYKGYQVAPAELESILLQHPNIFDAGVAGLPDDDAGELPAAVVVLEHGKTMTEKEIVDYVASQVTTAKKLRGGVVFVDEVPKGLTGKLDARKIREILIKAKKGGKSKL

[18] = Luminescence Cell-Based Dose Confirmation HTS to Identify Inhibitors of Platelet Dense Granule Release. [Related pubchem assays: 1663 (Primary HTS), 1678 (Summary of Project)]; format: functional

O=C(COC(=O)c1ccncc1)Nc1cc(S(=O)(=O)N2CCOCC2)ccc1Cl
IC50 [1]: > 47.1 µM (inactive)
EC50 [2]: > 53 µM (inactive)

COc1ccc2[nH]c3c(c2c1)CCN1C(=O)C(CC(=O)NCCc2ccccn2)C[C@H](C(=O)N(C(C)C)C(C)C)[C@@]31C (stereo partly drawn)
IC50 [1]: > 47.1 µM (inactive)
EC50 [2]: > 53 µM (inactive)

Clc1ccc2nc(-c3ccccn3)c(Nc3ccc4c(c3)OCO4)n2c1
EC50 [3]: 6.89 µM (active)
EC50 [4]: > 150 µM (not active)
IC50 [5]: 0.608 µM (not active)
EC50 [6]: 12.7 µM (active)

CCCCCCC(=O)N1C/C=C\C(c2ccc(OC)cc2)N(Cc2ccc(F)cc2)C(=O)[C@H]1Cc1ccccc1 (stereo partly drawn)
EC50 [7]: > 120 µM (not active)
EC50 [8]: > 120 µM (not active)
EC50 [9]: 9.71 µM (active)
AC50 [10]: 6.16 µM (active)

Cc1nc(SCC(=O)NC(C)c2ccccc2)c2oc3ccccc3c2n1 (stereo not drawn)
IC50 [5]: < 0.4 µM (not active)

O=C(c1ccc(Oc2ccccc2)cc1)c1nc2c(n1O)CCCC2
IC50 [5]: 12.9 µM (not active)

CCNC(=O)NCc1c(C)c(C)n(Cc2ccccc2)c1-n1cccc1
IC50 [5]: 8.86 µM (not active)

Nc1ccc(Nc2ccc([N+](=O)[O-])cc2[N+](=O)[O-])cc1
AC50 [10]: 59.4 µM (active)

O=C(COC(=O)COc1ccc(Cl)cc1Br)NCc1cccs1
IC50 [1]: > 47.1 µM (inactive)
EC50 [2]: > 53 µM (inactive)

CCN(c1cccc(C)c1)c1nc2ccsc2c(=O)s1
IC50 [1]: > 47.1 µM (inactive)
EC50 [2]: > 53 µM (inactive)

Cc1ccccc1OC1C(=O)N(Cc2ccc3c(c2)OCO3)C1c1sccc1C (stereo not drawn)
AC50 [10]: 11.4 µM (active)

O=C(O)c1nc2nc(Cl)c(Cl)nc2[nH]1
AC50 [11]: 3.16 µM (inconclusive)

O=C(CNc1ccccc1)N/N=C/c1c(O)ccc2ccccc12
EC50 [3]: 1.02 µM (active)
EC50 [6]: 0.939 µM (active)
AC50 [10]: 3.29 µM (active)

CCCCCC(=O)NNC(=O)c1ccc(F)cc1
IC50 [1]: > 47.1 µM (inactive)
EC50 [2]: > 53 µM (inactive)

Cc1ccc(C)n1NC(=O)c1ccccc1
AC50 [11]: 31.6 µM (inconclusive)
AC50 [12]: 0.141 µM (inconclusive)

O=C(N/N=C\c1ccc(Sc2ccccn2)o1)c1cccc(Br)c1
AC50 [13]: 28.2 µM (inconclusive)
AC50 [11]: 22.4 µM (inconclusive)

Cc1ccccc1OCCNc1ccc(C(F)(F)F)cc1[N+](=O)[O-]
AC50 [14]: 0.316 µM (inconclusive)
AC50 [13]: 5.01 µM (inconclusive)
AC50 [11]: 31.6 µM (inconclusive)

Cc1ccc(-c2csc(NC(=S)NC(=O)c3ccco3)n2)cc1
IC50 [5]: 4.46 µM (not active)

FC(F)(F)c1ccccc1-c1nc(-c2ccncc2)no1
CC50 [15]: 30.5 µM (active)
IC50 [1]: > 47.1 µM (inactive)
EC50 [2]: > 53 µM (inactive)

c1cc2c(cc1C1CCCCC1)c1c3n2CCN[C@H]3CCC1
AC50 [13]: 12.6 µM (inconclusive)
AC50 [11]: 31.6 µM (inconclusive)
AC50 [12]: 20 µM (inconclusive)

COc1ccc(N(C(=O)c2ccco2)C(C(=O)NC2CCCC2)c2ccc(N3CCOCC3)cc2)c(OC)c1 (stereo not drawn)
IC50 [1]: > 47.1 µM (inactive)
EC50 [2]: > 53 µM (inactive)

COC(=O)[C@H](N)Cc1ccc(Cl)cc1
AC50 [11]: 31.6 µM (inconclusive)

Cc1ccc(-c2nnc(C)c(N3CC(C)OC(C)C3)n2)cc1 (stereo not drawn)
AC50 [16]: 4.47 µM (inconclusive)
AC50 [11]: 5.01 µM (inconclusive)

CC(C)c1ccc(/C=C/C2=NNC(=O)CC2)cc1
EC50 [7]: < 0.1 µM (active)
EC50 [8]: 11.5 µM (active)
EC50 [9]: 0.13 µM (active)
IC50 [5]: 14.3 µM (not active)

CC(NC(=O)CCCCCN1C(=O)c2ccccc2C1=O)c1ccc2c(c1)CCCC2 (stereo not drawn)
IC50 [5]: 10.7 µM (not active)

O=C(/C=C/c1ccccc1[N+](=O)[O-])N1CCOCC1
IC50 [1]: > 47.1 µM (inactive)
EC50 [2]: > 53 µM (inactive)

Cc1ccc(-c2nc(-c3nccc4ccccc34)oc2-c2ccccc2)cc1
AC50 [14]: 5.01 µM (inconclusive)
AC50 [11]: 5.01 µM (inconclusive)

CCc1cccc2c(SCC(=O)NCC3CCCO3)nc(-c3ccc(F)cc3)nc12 (stereo not drawn)
IC50 [5]: 26.2 µM (not active)

O=C1NN=C(c2ccc(Cl)cc2)CC1c1cccc(Br)c1 (stereo not drawn)
IC50 [5]: 12.5 µM (not active)

CC(=O)c1ccccc1NC(=O)Cn1c(=O)cnc2ccccc21
IC50 [1]: > 47.1 µM (inactive)
EC50 [2]: > 53 µM (inactive)

CCc1nnc(NC(=O)[C@@H](NC(=O)c2cc(OC)cc(OC)c2)C(C)C)s1
EC50 [17]: > 112 µM (not active)
EC50 [18]: > 112 µM (not active)
IC50 [5]: 49.9 µM (not active)

CCCC1Cc2c(sc(NC(=S)NC(=O)c3ccccc3)c2C#N)CO1 (stereo not drawn)
IC50 [5]: 31 µM (not active)
